Patent US9593305B2, “Differentiation of pluripotent stem cells” (Janssen Biotech, Inc., priority 2008, dated 2017)

Tested on: H1 human embryonic stem cells
Assay: Compound 34 with growth factor combinations including GDF-8, no activin A (Example 7, Table 6)
Format: cell-based
Procedure: Clusters of H1 human embryonic stem cells were grown on reduced growth factor […]™ (Invitrogen; Cat #356231)-coated tissue culture plastic. Cells were passaged using collagenase (Invitrogen; Cat #17104-019) treatment and gentle scraping, washed to remove residual enzyme, and plated with even dispersal at a ratio of 1:1 (surface area) on reduced growth factor […]™-coated 96-well black plates (Packard ViewPlates; PerkinElmer; Cat #6005182) using volumes of 100 μl/well. Cells were allowed to attach as clusters and then recover log phase growth over a 1 to 3 day period, feeding daily with MEF conditioned medium supplemented with 8 ng/ml bFGF (R&D Systems; Cat #233-FB). Plates were maintained at 37° C., 5% CO2 in a humidified box throughout the duration of assay.
Stocks of growth factors purchased from R&D Systems were EGF (Cat #236-EG), FGF4 (Cat #235-F4), PDGF-A (Cat #221-AA), PDGF-D (Cat #1159-SB), PDGF-A/B (Cat #222-AB), VEGF (Cat #293-VE), and GDF-8 (Cat #788-G8). Muscimol was purchased from Tocris (Cat #0289). All growth factors were solubilized in PBS with 0.1% BSA (Sigma; Cat #A7888) and stored frozen at −80° C. Muscimol was solubilized in 100% DMSO (Sigma; Cat #D2650) and stored frozen at −80° C. Cyclic aniline-pyridinotriazine compounds were available as 5 mM stocks in 96-well plate format, solubilized in 100% DMSO and stored at −80° C. Compound 34 was further diluted to an intermediate concentration of 0.2 mM in 50 mM HEPES (Invitrogen; Cat #15630-080), 20% DMSO and stored at 4° C. All growth factors and inhibitors were prepared in a deep well, 96-well polypropylene plate, diluted to 5× intermediate stocks in DMEM:F12 base medium at the beginning of assay and stored at 4° C.
A secondary screening assay was conducted, testing in triplicate and feeding on alternate days over the four-day assay timeframe. Assays were initiated by aspirating culture medium from each well followed by three washes in PBS to remove residual growth factors and serum. […] All remaining growth factors were tested at a final assay concentration of 50 ng/ml (EGF, FGF4, PDGF-A, PDGF-A/B, VEGF) with the exception of GDF-8 tested at 25 ng/ml. Final assay concentration of muscimol was 20 μM. […]
On day 3, wells were aspirated and fed with 80 μl DMEM:F12 base medium supplemented with 2.5% FCS (HyClone) and 3.125 μM Compound 34 plus 20 μl 5× stock of growth factors or small molecules per well to yield a final concentration of 2% FCS and 2.5 μM Compound 34 (omitting Wnt3a) and as denoted on day one for all remaining growth factors or small molecules. Positive control wells (100 μl/well) contained the same base medium supplemented with 2% FCS and 100 ng/ml activin A, omitting Wnt3a. Negative control wells (100 μl/well) contained the same base medium with 2% FCS, omitting both activin A and Wnt3a.
At the conclusion of four-days of culture, assay plates were washed twice with PBS, fixed with 4% paraformaldehyde (Alexis Biochemical; Cat ALX-350-011) at room temperature for 20 minutes, then washed three times with PBS and permeabilized with 0.5% Triton X-100 (Sigma; Cat #T8760-2) for 20 minutes at room temperature. Cells were washed again three times with PBS and blocked with 4% chicken serum (Invitrogen; Cat #16110082) in PBS for 30 minutes at room temperature. Primary antibody (goat anti-human SOX17; R&D Systems; cat #AF1924) was diluted 1:100 in 4% chicken serum and added to each well for one hour at room temperature. Alexa Fluor 488 conjugated secondary antibody (chicken anti-goat IgG; Molecular Probes; Cat #AZ1467) was diluted 1:200 in PBS and added to each sample well after washing three times with PBS. To counterstain nuclei, 4 μg/ml Hoechst 33342 (Invitrogen; Cat #H3570) was added for ten minutes at room temperature. Plates were washed once with PBS and left in 100 μl/well PBS for imaging. […]

[1] = no AA (with Wnt3a), EGF + FGF4 + PDGF-A + VEGF + PDGF-D + Muscimol + GDF8
[2] = no AA (with Wnt3a), GDF8 + PDGF-D
[3] = no AA (with Wnt3a), GDF8 + PDGF-D + VEGF
[4] = no AA (with Wnt3a), GDF8 + PDGF-D + VEGF + Muscimol
[5] = no AA (with Wnt3a), GDF8 + VEGF + Muscimol
[6] = no AA (with Wnt3a), PDGF-D + Muscimol
[7] = no AA (with Wnt3a), PDGF-D + Muscimol + VEGF
[8] = no AA (with Wnt3a), PDGF-D + VEGF
[9] = no AA (with Wnt3a), VEGF + Muscimol
[10] = no AA, no Wnt3a, EGF + FGF4 + PDGF-A + VEGF + PDGF-D + Muscimol + GDF8

With “GDF-8: growth factor GDF-8, also known as myostatin, member of the TGF-β family” the SOX17 expression (GDF-8 25 ng/ml in any combination with Compound 34) was “substantial increase in SOX17 expression”.
In the case of O=C1CCN2CCN(CC2)Cc2cc(Cl)cc(c2)Nc2ncnc(n2)-c2cncc(c2)CCCN1 [Compound 34, 5-Chloro-1,8,10,12,16,22,26,32-octaazapentacyclo[24.2.2.1˜3.7˜0.1˜9,13˜0.1˜14.18˜]tritriaconta-3(33), 4,6,9(32), 10,12,14(31), 15,17-nonaen-23-one], the “SOX17 expression (% of control)” value (2.5 μM Compound 34 with GDF-8 (25 ng/ml) and Wnt3a, no activin A) is reported as 88 % of control, the “Cell Number, % of positive control” value (no AA (with Wnt3a), EGF) is reported as 85.53% and the “Cell Number, Average Total Cell Number” value (no AA (with Wnt3a), EGF) is reported as 6145. The “Sox17 Expression, % of positive control” value (no AA (with Wnt3a), EGF) was 19.18%, the “Sox17 Expression, Average Total Intensity” value (no AA (with Wnt3a), EGF) was 1.5E+07 and the “Cell Number, % of positive control” value [1] was 83.90%. The “Cell Number, Average Total Cell Number” value [1] was 6028, the “Sox17 Expression, % of positive control” value [1] was 87.44% and the “Sox17 Expression, Average Total Intensity” value [1] was 7.0E+07. For the same compound, the “Cell Number, % of positive control” value (no AA (with Wnt3a), FGF4) was 74.09%, the “Cell Number, Average Total Cell Number” value (no AA (with Wnt3a), FGF4) was 5323 and the “Sox17 Expression, % of positive control” value (no AA (with Wnt3a), FGF4) was 33.75%. The “Sox17 Expression, Average Total Intensity” value (no AA (with Wnt3a), FGF4) was 2.7E+07, the “Cell Number, % of positive control” value (no AA (with Wnt3a), GDF8) was 88.44% and the “Cell Number, Average Total Cell Number” value (no AA (with Wnt3a), GDF8) was 6354. The “Sox17 Expression, % of positive control” value (no AA (with Wnt3a), GDF8) was 88.59%, the “Sox17 Expression, Average Total Intensity” value (no AA (with Wnt3a), GDF8) was 7.1E+07 and the “Cell Number, % of positive control” value [2] was 95.88%. For the same compound, the “Cell Number, Average Total Cell Number” value [2] was 6889, the “Sox17 Expression, % of positive control” value [2] was 72.59% and the “Sox17 Expression, Average Total Intensity” value [2] was 5.8E+07. For the same compound, the “Cell Number, % of positive control” value [3] was 77.74%, the “Cell Number, Average Total Cell Number” value [3] was 5585 and the “Sox17 Expression, % of positive control” value [3] was 81.75%. The “Sox17 Expression, Average Total Intensity” value [3] was 6.6E+07, the “Cell Number, % of positive control” value [4] was 131.60% and the “Cell Number, Average Total Cell Number” value [4] was 9455. For the same compound, the “Sox17 Expression, % of positive control” value [4] was 119.24%, the “Sox17 Expression, Average Total Intensity” value [4] was 9.6E+07 and the “Cell Number, % of positive control” value [5] was 84.67%. For the same compound, the “Cell Number, Average Total Cell Number” value [5] was 6083, the “Sox17 Expression, % of positive control” value [5] was 69.62% and the “Sox17 Expression, Average Total Intensity” value [5] was 5.6E+07. For the same compound, the “Cell Number, % of positive control” value (no AA (with Wnt3a), Muscimol) was 101.41%, the “Cell Number, Average Total Cell Number” value (no AA (with Wnt3a), Muscimol) was 7286 and the “Sox17 Expression, % of positive control” value (no AA (with Wnt3a), Muscimol) was 38.38%. The “Sox17 Expression, Average Total Intensity” value (no AA (with Wnt3a), Muscimol) was 3.1E+07, the “Cell Number, % of positive control” value (no AA (with Wnt3a), PDGF-A) was 58.11% and the “Cell Number, Average Total Cell Number” value (no AA (with Wnt3a), PDGF-A) was 4175. The “Sox17 Expression, % of positive control” value (no AA (with Wnt3a), PDGF-A) was 13.43%, the “Sox17 Expression, Average Total Intensity” value (no AA (with Wnt3a), PDGF-A) was 1.1E+07 and the “Cell Number, % of positive control” value (no AA (with Wnt3a), PDGF-D) was 69.84%. The “Cell Number, Average Total Cell Number” value (no AA (with Wnt3a), PDGF-D) was 5017, the “Sox17 Expression, % of positive control” value (no AA (with Wnt3a), PDGF-D) was 18.76% and the “Sox17 Expression, Average Total Intensity” value (no AA (with Wnt3a), PDGF-D) was 1.5E+07. The “Cell Number, % of positive control” value [6] was 48.57%, the “Cell Number, Average Total Cell Number” value [6] was 3490 and the “Sox17 Expression, % of positive control” value [6] was 8.02%. For the same compound, the “Sox17 Expression, Average Total Intensity” value [6] was 6.5E+06, the “Cell Number, % of positive control” value [7] was 29.68% and the “Cell Number, Average Total Cell Number” value [7] was 2133. The “Sox17 Expression, % of positive control” value [7] was 3.32%, the “Sox17 Expression, Average Total Intensity” value [7] was 2.7E+06 and the “Cell Number, % of positive control” value [8] was 70.01%. For the same compound, the “Cell Number, Average Total Cell Number” value [8] was 5030, the “Sox17 Expression, % of positive control” value [8] was 14.58% and the “Sox17 Expression, Average Total Intensity” value [8] was 1.2E+07. The “Cell Number, % of positive control” value (no AA (with Wnt3a), VEGF) was 65.60%, the “Cell Number, Average Total Cell Number” value (no AA (with Wnt3a), VEGF) was 4713 and the “Sox17 Expression, % of positive control” value (no AA (with Wnt3a), VEGF) was 12.49%. The “Sox17 Expression, Average Total Intensity” value (no AA (with Wnt3a), VEGF) was 1.0E+07, the “Cell Number, % of positive control” value [9] was 10.81% and the “Cell Number, Average Total Cell Number” value [9] was 776. For the same compound, the “Sox17 Expression, % of positive control” value [9] was 1.56%, the “Sox17 Expression, Average Total Intensity” value [9] was 1.3E+06 and the “Cell Number, % of positive control” value (no AA (with Wnt3a), none) was 64.18%. The “Cell Number, Average Total Cell Number” value (no AA (with Wnt3a), none) was 4611, the “Sox17 Expression, % of positive control” value (no AA (with Wnt3a), none) was 17.21% and the “Sox17 Expression, Average Total Intensity” value (no AA (with Wnt3a), none) was 1.4E+07. For the same compound, the “Cell Number, % of positive control” value [10] was 66.21%, the “Cell Number, Average Total Cell Number” value [10] was 4757 and the “Sox17 Expression, % of positive control” value [10] was 48.77%. For the same compound, the “Sox17 Expression, Average Total Intensity” value [10] was 3.9E+07.
